Source: patent US10285936B2, “Injectable composition with aromatase inhibitor” (Laboratorios Farmacéuticos Rovi, S.A., priority 2010, dated 2019)
Where two headings read alike, the source gives them in different places.

Legend:
[1] = Letrozole particle size distribution by laser diffraction (Malvern Mastersizer 2000); format: physicochemical; settings: % volume; suspended in water until obscuration of 9.41%
Experimental: If not otherwise specified, the particle size distribution was determined by light scattering technique using laser light diffraction in wet mode. It is known that particle size distribution results can be altered as a function of the material treatment such the use of high concentrate surfactant agents and/or strong force energies (vortex, sonication, etc). If nothing else is mentioned, drug is not treated and samples are prepared by direct addition to the tank under moderate stirring (2000-3500 rpm). The methodology applied on present invention to determine the drug particle size distribution mimics in a more faithfully way the behavior of the drug powder on the injectable formulation herein described than other methods which apply force energies to the sample and/or use high concentrate surfactant agents for preparing the samples in order to achieve high degrees of powder disaggregation that cannot be simulated during the manual reconstitution process of the formulation.
Letrozole particle size in formulation 2 was characterized by the technique of laser ray diffraction (Malvern Mastersizer 2000, suspended in water until obscuration of 9.41%) and had the following distribution (in % volume): d(0.1)=38.21 μm, d(0.5)=141.35 μm and d(0.9)=312.13 μm.

[2] = format: in vitro ADME; settings: for stability of samples at room temperature: 6 h; for storage of processed samples without change in precision and accuracy: 24 h; for long term stability of samples: 132 days
Experimental: For quantification of letrozole in dog and rabbit plasma a technique based on high performance liquid chromatography with fluorescence detector HPLC-FLD […] using a liquid-liquid extraction with […] as the organic solvent and resuspension for analysis in reverse phase with isocratic elution. Carvedilol was used as the internal standard and the process time was 8.5 min with a letrozole retention time of 7.8 min and applying wavelengths of 240 nm (λ excitation) and 315 nm (λ emission). The validated concentration interval was from 5 (LLOQ) to 500 ng/mL, that is with a lower limit of quantification or minimum quantifiable analyte concentration of the analytical technique of 5 ng/mL and a maximum validated concentration of 500 ng/mL. Calibration curves obtained were characterized with a correlation coefficient of over 0.99. Precision and intra-assay and inter-assay accuracy was less than 20% for the LLOQ and less than 15% for the other QCs, that is, of the other known concentration samples used as quality controls in conducting the analysis. The bioanalytical method was validated over three days and the results met the acceptance criteria described in the FDA guide: “Bioanalytical Method Validation”.
Processed samples could be stored in the sampler at 4° C. for 24 hours without noticing any change in the precision and accuracy of the analysis.

d(0.1) [1]: 38.21 μm | d(0.5) [1]: 141.35 μm | d(0.9) [1]: 312.13 μm | effect of cycles of freezing/thawing on stability ([2]; dog): did not affect the stability | stability of samples at room temperature ([2]; dog): up to 6 hours | storage of processed samples without change in precision and accuracy ([2]; dog): 24 h | long term stability of samples ([2]; dog): 132 days | effect of cycles of freezing/thawing on stability ([2]; rabbit): did not affect the stability | stability of samples at room temperature ([2]; rabbit): up to 6 hours | storage of processed samples without change in precision and accuracy ([2]; rabbit): 24 h | long term stability of samples ([2]; rabbit): 132 days
SMILES: N#Cc1ccc(C(c2ccc(C#N)cc2)n2cncn2)cc1 [Letrozole, 4,4′-(1,2,4-triazol-1-ylmethyl)dibenzonitrile]
